According to US20090029996A1, “Pyridazin-3(2H)-One Derivatives And Their Use As Pde4 Inhibitors” (priority 2004, published 2009):

Molecular target: PDE4 (Homo sapiens, UniProt Q07343)
Assay: PDE4 Assay Procedure ([3H]-cAMP SPA)
Type: biochemical
Settings: 15 nM [3H]-cAMP, 1 hour at room temperature, SPA beads; read-out: HPDE4B or IC50 PDE4
Experimental: Compounds to be tested were resuspended in DMSO at a stock concentration of 1 mM. […] These dilutions were done in 96-well plates. In some cases, plates containing diluted compounds were frozen before being assayed. In these cases, the plates were thawed at room temperature and stirred for 15 minutes.
Ten microliters of the diluted compounds were poured into a “low binding” assay plate. […] The reaction was initiated by adding ten microliters of a solution containing PDE4. The plate was then incubated under stirring for 1 hour at room temperature. After incubation the reaction was stopped with 50 microlitres of SPA beads, and the reaction was allowed to incubate for another 20 minutes at room temperature before measuring radioactivity using standard instrumentation.
The reaction mixture was prepared by adding 90 ml of H2O to 10 ml of 10× assay buffer (500 mM Tris pH 7.5, 83 mM MgCl2, 17 mM EGTA), and 40 microlitres 1 μCi/μL [3H]-cAMP. SPA beads solution was prepared by adding 500 mg to […] H2O for a final concentration of 20 mg/ml beads and 18 mM zinc sulphate.

Chain of PDE4 (Q07343 324-700 limits assumed): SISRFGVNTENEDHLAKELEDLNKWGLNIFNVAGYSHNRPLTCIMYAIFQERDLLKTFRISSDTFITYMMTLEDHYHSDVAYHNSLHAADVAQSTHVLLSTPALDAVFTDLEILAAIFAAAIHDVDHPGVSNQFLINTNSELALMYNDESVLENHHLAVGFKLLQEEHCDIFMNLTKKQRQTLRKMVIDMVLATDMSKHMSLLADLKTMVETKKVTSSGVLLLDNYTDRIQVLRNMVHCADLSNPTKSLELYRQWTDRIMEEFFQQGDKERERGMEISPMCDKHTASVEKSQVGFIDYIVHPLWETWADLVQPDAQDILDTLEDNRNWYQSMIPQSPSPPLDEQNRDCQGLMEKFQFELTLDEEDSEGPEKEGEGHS

CCn1nc(-c2ccccc2)c(C(=O)OC(C)OC(=O)OC2CCCCC2)c(Nc2cccnc2)c1=O (single isomer, unassigned; (-)) [Example 132, (−)-1-{[(Cyclohexyloxy)carbonyl]oxy}ethyl 1-ethyl-6-oxo-3-phenyl-5-(pyridin-3-ylamino)-1,6-dihydropyridazine-4-carboxylate]
IC50: 0.3 nM

CCn1nc(-c2ccccc2)c(C(=O)OCOC(=O)C(C)(C)C)c(Nc2cccnc2)c1=O [Example 23, [(2,2-Dimethylpropanoyl)oxy]methyl 1-ethyl-6-oxo-3-phenyl-5-(pyridin-3-ylamino)-1,6-dihydropyridazine-4-carboxylate]
IC50: 0.94 nM

CCn1nc(-c2ccccc2)c(C(=O)OC2OC(=O)c3ccccc32)c(Nc2cccnc2)c1=O (stereo not drawn) [Example 18, 3-Oxo-1,3-dihydro-2-benzofuran-1-yl 1-ethyl-6-oxo-3-phenyl-5-(pyridin-3-ylamino)-1,6-dihydropyridazine-4-carboxylate]
IC50: 2.1 nM

CCn1nc(-c2ccccc2)c(C(=O)OCC(=O)OCc2ccccc2)c(Nc2cccnc2)c1=O [Example 16, 2-(Benzyloxy)-2-oxoethyl 1-ethyl-6-oxo-3-phenyl-5-(pyridin-3-ylamino)-1,6-dihydropyridazine-4-carboxylate]
IC50: 0.22 nM

CCn1nc(-c2ccc(C)cc2)c(C(=O)OCOC(=O)C(C)(C)C)c(Nc2cccnc2)c1=O [Example 68, [(2,2-Dimethylpropanoyl)oxy]methyl 1-ethyl-3-(4-methylphenyl)-6-oxo-5-(pyridin-3-ylamino)-1,6-dihydropyridazine-4-carboxylate]
IC50: 5.7 nM

CCn1nc(-c2cccc(C)c2)c(C(=O)OCOC(=O)C(C)(C)C)c(Nc2cccnc2)c1=O [Example 35, [(2,2-Dimethylpropanoyl)oxy]methyl 1-ethyl-3-(3-methylphenyl)-6-oxo-5-(pyridin-3-ylamino)-1,6-dihydropyridazine-4-carboxylate]
IC50: 2.2 nM

CCOC(=O)OC(C)OC(=O)c1c(-c2ccccc2)nn(CC)c(=O)c1Nc1cnccc1C (stereo not drawn) [Example 27, 1-[(Ethoxycarbonyl)oxy]ethyl 1-ethyl-5-[(4-methylpyridin-3-yl)amino]-6-oxo-3-phenyl-1,6-dihydropyridazine-4-carboxylate]
IC50: 9.1 nM

CCn1nc(-c2ccccc2)c(C(=O)OCOC(=O)C(C)(C)C)c(Nc2cnccc2C)c1=O [Example 26, [(2,2-dimethylpropanoyl)oxy]methyl 1-ethyl-5-[(4-methylpyridin-3-yl)amino]-6-oxo-3-phenyl-1,6-dihydropyridazine-4-carboxylate]
IC50: 2.3 nM

CCn1nc(-c2ccccc2)c(C(=O)OCc2oc(=O)oc2C)c(Nc2cnccc2C)c1=O [Example 142, (5-Methyl-2-oxo-1,3-dioxol-4-yl)methyl 1-ethyl-5-[(4-methylpyridin-3-yl)amino]-6-oxo-3-phenyl-1,6-dihydropyridazine-4-carboxylate]
IC50: 1.2 nM

CCOC(=O)COC(=O)c1c(-c2ccsc2)nn(CC)c(=O)c1Nc1cnccc1C [Example 122, 2-Ethoxy-2-oxoethyl 1-ethyl-5-[(4-methylpyridin-3-yl)amino]-6-oxo-3-(3-thienyl)-1,6-dihydropyridazine-4-carboxylate]
IC50: 3.4 nM

CCn1nc(-c2ccccc2)c(C(=O)OC(C)OC(=O)OC2CCCCC2)c(Nc2cnccc2C)c1=O (stereo not drawn) [Example 76, 1-{[(Cyclohexyloxy)carbonyl]oxy}ethyl 1-ethyl-5-[(4-methylpyridin-3-yl)amino]-6-oxo-3-phenyl-1,6-dihydropyridazine-4-carboxylate]
IC50: 4.6 nM

CCCC(=O)OCOC(=O)c1c(-c2ccccc2)nn(CC)c(=O)c1Nc1cccnc1 [Example 17, (Butyryloxy)methyl 1-ethyl-6-oxo-3-phenyl-5-(pyridin-3-ylamino)-1,6-dihydropyridazine-4-carboxylate]
IC50: 3.6 nM

CCn1nc(-c2ccccc2)c(C(=O)OCOC(=O)C(C)(C)C)c(Nc2cncc3ccccc23)c1=O [Example 31, [(2,2-Dimethylpropanoyl)oxy]methyl 1-ethyl-5-(isoquinolin-4-ylamino)-6-oxo-3-phenyl-1,6-dihydropyridazine-4-carboxylate]
IC50: 0.07 nM

CCn1nc(-c2ccccc2)c(C(=O)OCCl)c(Nc2cncc3ccccc23)c1=O [Example 164, Chloromethyl 1-ethyl-5-(isoquinolin-4-ylamino)-6-oxo-3-phenyl-1,6-dihydropyridazine-4-carboxylate]
IC50: 0.1 nM

CCn1nc(-c2ccccc2)c(C(=O)OCOC(C)=O)c(Nc2cccnc2)c1=O [Example 19, (Acetyloxy)methyl 1-ethyl-6-oxo-3-phenyl-5-(pyridin-3-ylamino)-1,6-dihydropyridazine-4-carboxylate]
IC50: 11 nM
